In general, inhibition refers to the relative decrease from the control value, in per cent. A word on the IC50: it is the midpoint of a concentration-inhibition curve.

Experimental findings from US10722515B2, “Dual CLK/CDK1 inhibitors for cancer treatment” (SRI INTERNATIONAL, priority 2016, dated 2020) are described below.

The target of one assay is T1, B-Raf(h) (Homo sapiens, UniProt P15056).
T1 construct: purchased Eurofins, Dundee, Scotland
The experiment in a line: kinase profile, radiometric assay, B-Raf. The format is biochemical. Here is the method: (§1) Enzymatic biochemical activities were evaluated in radiometric protein kinase assays (Eurofins, Dundee, Scotland). Kinases are incubated with buffer, substrate and [γ-^33P]-ATP (specific activity approx. 500 cpm/pmol, concentration as required). The reaction is initiated by the addition of the MgATP mix. After incubation for 40 minutes at room temperature, the reaction is stopped by the addition of 3% phosphoric acid solution. 10 μL of the reaction is then spotted onto a P30 filtermat and washed three times for 5 minutes in 75 mM phosphoric acid and once in methanol prior to drying and scintillation counting.
(§2) All compounds are prepared to 50× final assay concentration in 100% DMSO. Positive control wells contain all components of the reaction with 2% DMSO. Blank wells contain all components of the reaction, with a reference inhibitor replacing the compound of interest. Each kinase is assigned a standard assay concentration of ATP within 20 μM of its apparent KM. Compounds were screened at 1 μM in duplicate or tested at 10 concentrations at half log dilution starting from 10 μM in singlicate. Dose response curves were fitted with four parameter logistic curve to obtain IC50 values. The average coefficient of variation (CV) of the conducted assay is 4.4%.

In a further assay the target is T2, Plk1(h) (Homo sapiens, UniProt P53350).
T2 construct: purchased Eurofins, Dundee, Scotland
In words: kinase profile, radiometric assay, Plk1. It counts as biochemical. Here is the method:
as §1, §2

In assay [1] the test system is SK-MEL-2/Luc-MDM2 cells (MDM2-Luc exon-skipping reporter). In words: cell-based MDM2-Luc exon-skipping reporter assay. Conditions: for luciferase response (Luc fold) in the MDM2-Luc reporter assay: compared with less potent CLK inhibitors of the series; for MDM2/Luc: luciferase activation vs DMSO control, average of three experiments.
The target in the next assay is T3, JAK2(h) (Homo sapiens, UniProt O60674).
T3 construct: purchased Eurofins, Dundee, Scotland
In words: kinase profile, radiometric assay, JAK2. The format is biochemical. As for the experimental part:
as §1, §2

Another assay has as its target T4, JNK1α1(h) (Homo sapiens, UniProt P45983).
T4 construct: purchased Eurofins, Dundee, Scotland
The experiment in a line: kinase profile, radiometric assay, JNK1α1. The format is biochemical. As for the experimental part: as §1, §2

For a further assay, the target named is T5, CLK1(h) (Homo sapiens, UniProt P49759).
T5 construct: purchased Eurofins, Dundee, Scotland
In words: radiometric protein kinase assay, CLK1. The format is biochemical. The note with it: enzyme inhibition, radiometric, ATP 10 μM; read-out: IC50 (nM) CLK1. As for the experimental part: as §1, §2

Another assay addresses T6, Aurora-A(h) (Homo sapiens, UniProt O14965).
T6 construct: purchased Eurofins, Dundee, Scotland
T6 sequence (O14965 1-403): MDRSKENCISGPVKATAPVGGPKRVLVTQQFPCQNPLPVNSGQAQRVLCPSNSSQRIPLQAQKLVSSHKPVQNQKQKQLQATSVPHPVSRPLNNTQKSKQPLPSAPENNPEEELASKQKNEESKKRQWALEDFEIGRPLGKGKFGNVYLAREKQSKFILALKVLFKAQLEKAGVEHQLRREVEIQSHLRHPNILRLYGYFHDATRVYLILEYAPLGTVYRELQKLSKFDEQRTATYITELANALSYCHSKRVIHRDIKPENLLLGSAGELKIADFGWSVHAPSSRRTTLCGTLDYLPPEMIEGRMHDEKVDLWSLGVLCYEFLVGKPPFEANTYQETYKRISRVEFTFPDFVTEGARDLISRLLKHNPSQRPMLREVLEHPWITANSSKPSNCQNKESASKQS
In words: kinase profile, radiometric assay, Aurora-A. The format is biochemical. Here is the method: as §1, §2

Another assay concerns the target T7, JNK2α2(h) (Homo sapiens, UniProt P45984).
T7 construct: purchased Eurofins, Dundee, Scotland
In words: kinase profile, radiometric assay, JNK2α2. It counts as biochemical. As for the experimental part: as §1, §2

Another assay addresses T8, Flt3(h) (Homo sapiens, UniProt P36888).
T8 construct: purchased Eurofins, Dundee, Scotland
T8 sequence (P36888 27-993): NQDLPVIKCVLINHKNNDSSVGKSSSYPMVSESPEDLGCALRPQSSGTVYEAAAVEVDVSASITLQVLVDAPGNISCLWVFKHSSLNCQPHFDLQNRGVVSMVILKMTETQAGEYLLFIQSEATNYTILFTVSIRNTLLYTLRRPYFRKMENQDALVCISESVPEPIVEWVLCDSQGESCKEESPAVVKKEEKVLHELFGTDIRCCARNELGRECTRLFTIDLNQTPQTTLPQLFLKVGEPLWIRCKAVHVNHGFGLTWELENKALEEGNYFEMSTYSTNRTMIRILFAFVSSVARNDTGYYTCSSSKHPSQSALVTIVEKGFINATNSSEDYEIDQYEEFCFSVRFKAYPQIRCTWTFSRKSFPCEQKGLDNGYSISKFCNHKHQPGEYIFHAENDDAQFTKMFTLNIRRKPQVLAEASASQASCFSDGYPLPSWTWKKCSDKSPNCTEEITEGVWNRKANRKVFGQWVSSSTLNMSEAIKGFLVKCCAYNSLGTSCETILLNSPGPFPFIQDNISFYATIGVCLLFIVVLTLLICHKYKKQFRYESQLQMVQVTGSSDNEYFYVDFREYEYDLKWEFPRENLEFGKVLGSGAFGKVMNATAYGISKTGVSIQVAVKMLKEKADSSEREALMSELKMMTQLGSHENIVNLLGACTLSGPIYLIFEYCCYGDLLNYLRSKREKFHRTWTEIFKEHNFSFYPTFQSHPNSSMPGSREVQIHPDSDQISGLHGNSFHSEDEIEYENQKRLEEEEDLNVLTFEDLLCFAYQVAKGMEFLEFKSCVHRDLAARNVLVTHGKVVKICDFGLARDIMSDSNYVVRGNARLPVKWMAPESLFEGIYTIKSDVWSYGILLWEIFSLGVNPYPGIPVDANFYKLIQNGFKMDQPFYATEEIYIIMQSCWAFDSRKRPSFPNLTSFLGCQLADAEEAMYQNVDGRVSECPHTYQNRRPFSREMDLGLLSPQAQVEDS
The experiment in a line: kinase profile, radiometric assay, Flt3. It counts as biochemical. As for the experimental part:
as §1, §2

The target of the next assay is T9, ErbB2(h) (Homo sapiens, UniProt P04626).
T9 construct: purchased Eurofins, Dundee, Scotland
In words: kinase profile, radiometric assay, ErbB2. It counts as biochemical. As for the experimental part: as §1, §2

Molecules are shown by their SMILES.

T5 sequence (P49759 whole entry): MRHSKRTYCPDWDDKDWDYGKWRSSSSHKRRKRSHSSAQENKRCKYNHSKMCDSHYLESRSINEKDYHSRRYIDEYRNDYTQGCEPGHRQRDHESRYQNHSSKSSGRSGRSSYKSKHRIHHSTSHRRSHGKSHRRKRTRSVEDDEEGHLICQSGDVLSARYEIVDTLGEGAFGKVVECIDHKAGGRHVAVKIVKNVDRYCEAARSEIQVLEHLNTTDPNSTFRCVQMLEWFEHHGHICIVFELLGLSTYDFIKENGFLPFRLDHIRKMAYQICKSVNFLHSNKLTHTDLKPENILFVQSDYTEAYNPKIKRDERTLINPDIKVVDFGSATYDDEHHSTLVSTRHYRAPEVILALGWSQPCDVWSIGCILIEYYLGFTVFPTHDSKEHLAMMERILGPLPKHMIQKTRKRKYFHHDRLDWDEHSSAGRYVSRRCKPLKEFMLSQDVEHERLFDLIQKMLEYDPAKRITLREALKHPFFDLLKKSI
T4 sequence (P45983 1-384 isoform P45983-2): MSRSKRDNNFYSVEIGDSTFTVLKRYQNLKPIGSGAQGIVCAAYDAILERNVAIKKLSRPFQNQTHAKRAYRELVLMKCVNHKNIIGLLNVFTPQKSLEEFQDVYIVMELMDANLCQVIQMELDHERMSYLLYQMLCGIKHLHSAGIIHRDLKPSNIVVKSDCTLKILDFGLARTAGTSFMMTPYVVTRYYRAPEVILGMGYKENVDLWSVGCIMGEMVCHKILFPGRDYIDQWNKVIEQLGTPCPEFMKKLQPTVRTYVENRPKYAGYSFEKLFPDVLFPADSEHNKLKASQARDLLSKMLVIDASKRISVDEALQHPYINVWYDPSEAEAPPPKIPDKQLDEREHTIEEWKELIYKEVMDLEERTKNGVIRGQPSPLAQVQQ
T1 sequence (P15056 whole entry): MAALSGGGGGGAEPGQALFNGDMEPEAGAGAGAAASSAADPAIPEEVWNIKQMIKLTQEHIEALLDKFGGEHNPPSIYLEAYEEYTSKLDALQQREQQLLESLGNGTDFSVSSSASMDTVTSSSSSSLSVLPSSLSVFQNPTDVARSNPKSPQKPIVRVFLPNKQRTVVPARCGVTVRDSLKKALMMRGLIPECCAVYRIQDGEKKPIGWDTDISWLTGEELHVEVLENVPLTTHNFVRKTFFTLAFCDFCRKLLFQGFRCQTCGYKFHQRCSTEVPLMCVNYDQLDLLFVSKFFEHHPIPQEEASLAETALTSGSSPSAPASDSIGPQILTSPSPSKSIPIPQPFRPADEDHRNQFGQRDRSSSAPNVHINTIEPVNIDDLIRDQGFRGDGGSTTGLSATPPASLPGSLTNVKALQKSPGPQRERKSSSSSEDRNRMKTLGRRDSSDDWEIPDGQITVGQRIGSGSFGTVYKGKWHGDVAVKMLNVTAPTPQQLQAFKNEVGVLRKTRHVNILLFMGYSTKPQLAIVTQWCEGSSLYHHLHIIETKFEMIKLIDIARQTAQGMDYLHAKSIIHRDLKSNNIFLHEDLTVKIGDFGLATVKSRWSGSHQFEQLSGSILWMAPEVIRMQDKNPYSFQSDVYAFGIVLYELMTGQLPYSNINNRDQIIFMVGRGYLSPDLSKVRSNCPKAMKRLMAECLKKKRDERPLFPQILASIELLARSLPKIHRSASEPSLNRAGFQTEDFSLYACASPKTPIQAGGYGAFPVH
T9 sequence (P04626 23-1255): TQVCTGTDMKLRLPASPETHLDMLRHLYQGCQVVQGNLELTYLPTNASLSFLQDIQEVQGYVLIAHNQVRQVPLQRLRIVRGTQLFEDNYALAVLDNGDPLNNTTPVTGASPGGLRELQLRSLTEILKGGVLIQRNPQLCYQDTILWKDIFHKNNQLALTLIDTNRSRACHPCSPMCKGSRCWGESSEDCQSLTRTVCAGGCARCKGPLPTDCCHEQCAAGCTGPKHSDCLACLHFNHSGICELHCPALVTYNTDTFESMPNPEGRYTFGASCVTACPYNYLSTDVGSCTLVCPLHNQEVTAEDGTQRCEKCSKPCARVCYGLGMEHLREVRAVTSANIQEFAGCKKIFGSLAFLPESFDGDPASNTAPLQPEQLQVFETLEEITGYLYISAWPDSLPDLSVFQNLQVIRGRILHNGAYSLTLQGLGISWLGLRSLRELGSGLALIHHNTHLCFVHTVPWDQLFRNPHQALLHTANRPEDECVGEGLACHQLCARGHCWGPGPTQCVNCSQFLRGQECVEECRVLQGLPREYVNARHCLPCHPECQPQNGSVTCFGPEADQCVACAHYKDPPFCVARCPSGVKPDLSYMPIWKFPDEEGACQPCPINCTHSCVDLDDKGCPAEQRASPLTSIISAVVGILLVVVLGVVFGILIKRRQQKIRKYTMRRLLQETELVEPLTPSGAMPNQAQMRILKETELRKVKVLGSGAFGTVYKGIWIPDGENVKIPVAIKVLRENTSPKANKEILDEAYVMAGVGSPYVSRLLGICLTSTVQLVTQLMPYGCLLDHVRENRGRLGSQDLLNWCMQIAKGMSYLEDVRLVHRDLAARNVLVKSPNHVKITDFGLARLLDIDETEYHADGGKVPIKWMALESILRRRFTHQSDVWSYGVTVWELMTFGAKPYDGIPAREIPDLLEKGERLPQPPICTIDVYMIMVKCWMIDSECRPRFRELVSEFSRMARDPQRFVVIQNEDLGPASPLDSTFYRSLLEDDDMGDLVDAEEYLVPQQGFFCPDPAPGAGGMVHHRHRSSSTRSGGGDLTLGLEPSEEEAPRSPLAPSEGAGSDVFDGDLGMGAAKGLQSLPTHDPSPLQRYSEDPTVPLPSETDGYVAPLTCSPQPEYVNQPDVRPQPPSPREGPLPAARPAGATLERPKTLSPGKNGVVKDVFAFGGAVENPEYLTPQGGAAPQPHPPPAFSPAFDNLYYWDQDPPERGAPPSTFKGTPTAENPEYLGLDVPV
T2 sequence (P53350 whole entry): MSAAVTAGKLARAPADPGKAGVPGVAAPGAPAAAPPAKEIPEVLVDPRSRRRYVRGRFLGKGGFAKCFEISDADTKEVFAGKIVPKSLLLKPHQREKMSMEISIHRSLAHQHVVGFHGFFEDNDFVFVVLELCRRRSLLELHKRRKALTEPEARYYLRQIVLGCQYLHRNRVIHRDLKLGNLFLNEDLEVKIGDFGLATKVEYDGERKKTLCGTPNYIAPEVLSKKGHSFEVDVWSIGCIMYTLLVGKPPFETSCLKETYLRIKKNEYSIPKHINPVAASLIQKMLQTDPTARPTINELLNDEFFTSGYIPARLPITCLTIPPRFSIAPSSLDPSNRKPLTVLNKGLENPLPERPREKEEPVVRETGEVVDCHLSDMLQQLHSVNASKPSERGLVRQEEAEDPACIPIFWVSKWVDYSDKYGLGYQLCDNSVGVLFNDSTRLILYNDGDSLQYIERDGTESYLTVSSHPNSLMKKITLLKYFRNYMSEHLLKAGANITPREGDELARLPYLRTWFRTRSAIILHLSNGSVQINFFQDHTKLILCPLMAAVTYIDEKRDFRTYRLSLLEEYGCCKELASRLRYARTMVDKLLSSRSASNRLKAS
T7 sequence (P45984 whole entry): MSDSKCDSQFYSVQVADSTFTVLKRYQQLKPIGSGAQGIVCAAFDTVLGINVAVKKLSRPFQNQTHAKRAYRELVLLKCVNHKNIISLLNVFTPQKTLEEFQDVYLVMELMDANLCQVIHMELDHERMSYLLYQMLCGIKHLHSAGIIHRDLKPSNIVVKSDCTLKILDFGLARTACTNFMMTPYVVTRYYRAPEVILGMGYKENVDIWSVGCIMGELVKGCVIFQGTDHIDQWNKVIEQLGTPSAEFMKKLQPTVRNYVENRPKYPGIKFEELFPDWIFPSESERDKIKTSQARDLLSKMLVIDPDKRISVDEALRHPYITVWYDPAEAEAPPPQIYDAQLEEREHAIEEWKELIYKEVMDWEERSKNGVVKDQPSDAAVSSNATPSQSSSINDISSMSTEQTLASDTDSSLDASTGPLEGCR
T3 sequence (O60674 whole entry): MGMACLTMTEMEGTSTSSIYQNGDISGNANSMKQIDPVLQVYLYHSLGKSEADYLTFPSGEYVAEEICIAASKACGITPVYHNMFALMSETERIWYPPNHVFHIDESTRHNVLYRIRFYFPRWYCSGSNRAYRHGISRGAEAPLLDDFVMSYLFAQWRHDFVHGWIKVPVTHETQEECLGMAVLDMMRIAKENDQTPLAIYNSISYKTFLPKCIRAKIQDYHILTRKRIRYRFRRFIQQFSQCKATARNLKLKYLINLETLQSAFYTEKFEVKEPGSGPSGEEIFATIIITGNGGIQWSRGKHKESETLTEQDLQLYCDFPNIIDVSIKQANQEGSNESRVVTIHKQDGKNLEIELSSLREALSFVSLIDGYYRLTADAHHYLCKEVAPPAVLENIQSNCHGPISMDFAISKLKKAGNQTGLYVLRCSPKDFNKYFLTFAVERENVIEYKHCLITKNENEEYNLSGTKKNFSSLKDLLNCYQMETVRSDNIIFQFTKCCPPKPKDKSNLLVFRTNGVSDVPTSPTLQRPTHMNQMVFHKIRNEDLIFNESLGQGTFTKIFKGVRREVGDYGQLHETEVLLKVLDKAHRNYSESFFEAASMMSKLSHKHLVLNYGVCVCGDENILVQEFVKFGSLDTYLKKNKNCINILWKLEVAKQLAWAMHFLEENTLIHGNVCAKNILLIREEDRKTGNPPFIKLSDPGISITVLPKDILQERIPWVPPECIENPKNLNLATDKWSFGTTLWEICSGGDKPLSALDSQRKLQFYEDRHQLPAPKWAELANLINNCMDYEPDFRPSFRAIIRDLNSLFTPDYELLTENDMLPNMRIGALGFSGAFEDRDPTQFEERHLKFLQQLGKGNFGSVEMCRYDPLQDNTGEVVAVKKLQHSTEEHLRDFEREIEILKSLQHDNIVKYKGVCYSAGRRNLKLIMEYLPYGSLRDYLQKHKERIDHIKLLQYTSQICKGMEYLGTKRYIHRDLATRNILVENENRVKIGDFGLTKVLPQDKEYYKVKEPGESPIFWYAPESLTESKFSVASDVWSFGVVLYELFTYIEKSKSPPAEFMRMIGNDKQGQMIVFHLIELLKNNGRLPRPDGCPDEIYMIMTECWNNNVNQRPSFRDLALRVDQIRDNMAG

As to `CC(C)n1cnc2c(Nc3cccc(Cl)c3)nc(N[C@@H]3CCCC[C@@H]3N)nc21` [Compound 9, N^2-((1R,2S)-2-Aminocyclohexyl)-N^6-(3-Chlorophenyl)-9-Isopropyl-9H-Purine-2,6-Diamine], the inhibition at 1 µM against B-Raf(h) is 21%; against Plk1(h), 9%; against JAK2(h), 2%; at JNK1α1(h) it was -1%; against Aurora-A(h), -5%; on JNK2α2(h), 4%. Besides, the inhibition at 1 µM against Flt3(h) is 90%; against ErbB2(h), 0%. For the same molecule, the “luciferase response (Luc fold) in the MDM2-Luc reporter assay” value in [1] is listed as “stronger luciferase response”. The MDM2/Luc result in [1] is “Active”. Also, on CLK1(h), the IC50 came to 38 nM.
For `CC(C)n1cnc2c(Nc3cc(N)cc(Cl)c3)nc(NC3CCCCC3N)nc21` (racemic) [Compound 14, Racemic N^6-Cis-(3-Amino-5-Chlorophenyl)-N^2-(2-Aminocyclohexyl)-9-Isopropyl-9H-Purine-2,6-Diamine], the inhibition at 1 µM against B-Raf(h) is 5%; against Plk1(h), 60%; against JAK2(h) it was 8%; against JNK1α1(h), -6%; against Aurora-A(h), 13%; against JNK2α2(h) it was -6%. Moreover, the inhibition at 1 µM on Flt3(h) came to 93%; at ErbB2(h), 3%. In addition, the “luciferase response (Luc fold) in the MDM2-Luc reporter assay” value in [1] is recorded as “stronger luciferase response”. Besides, in [1], the MDM2/Luc result was “Active”. Moreover, the MDM2-Luc activity entry in [1] (result in words, no concentration stated) is “strong MDM2-Luc activity”. Besides, on CLK1(h), the IC50 came to 18 nM.
Consider `CC(C)n1cnc2c(Nc3cccc(Cl)c3)nc(N[C@H]3CCCC[C@@H]3N)nc21` [Compound 8, N^2-((1S,2S)-2-Aminocyclohexyl)-V-(3-Chlorophenyl)-9-Isopropyl-9H-Purine-2,6-Diamine], for which the inhibition at 1 µM at B-Raf(h) is 10%; at Plk1(h), 49%; against JAK2(h), -6%; on JNK1α1(h), 3%; against Aurora-A(h), 4%; at JNK2α2(h), 1%. The inhibition at 1 µM on Flt3(h) amounted to 19%; at ErbB2(h), 2%. In addition, the MDM2/Luc result in assay [1] is reported as “Active”. At CLK1(h), the IC50 is 78 nM.
